Experimental findings from ChEMBL document CHEMBL2396526, “Chromenylchalcones showing cytotoxicity on human colon cancer cell lines and in silico docking with aurora kinases” (Bioorg Med Chem, 2013) are described below.

pIC50: −log10 of the molar value. Calls of active or inactive are those of the source. No cut-off for these calls is given here.

The test system of assay [1] is HCT-116. Kind of assay: Induction of apoptosis in human HCT116 cells assessed as viable cells at 20 uM after 24 hrs by annexin V-FITC/propidium iodide staining-based flow cytometric analysis (reference value: 71 %). Conditions: HCT-116, 24 h, read-out: Activity. It is filed as functional.
Assay [2] concerns the target T1, Serine/threonine-protein kinase Chk1 (Homo sapiens) (UniProt O14757).
T1 sequence (whole entry): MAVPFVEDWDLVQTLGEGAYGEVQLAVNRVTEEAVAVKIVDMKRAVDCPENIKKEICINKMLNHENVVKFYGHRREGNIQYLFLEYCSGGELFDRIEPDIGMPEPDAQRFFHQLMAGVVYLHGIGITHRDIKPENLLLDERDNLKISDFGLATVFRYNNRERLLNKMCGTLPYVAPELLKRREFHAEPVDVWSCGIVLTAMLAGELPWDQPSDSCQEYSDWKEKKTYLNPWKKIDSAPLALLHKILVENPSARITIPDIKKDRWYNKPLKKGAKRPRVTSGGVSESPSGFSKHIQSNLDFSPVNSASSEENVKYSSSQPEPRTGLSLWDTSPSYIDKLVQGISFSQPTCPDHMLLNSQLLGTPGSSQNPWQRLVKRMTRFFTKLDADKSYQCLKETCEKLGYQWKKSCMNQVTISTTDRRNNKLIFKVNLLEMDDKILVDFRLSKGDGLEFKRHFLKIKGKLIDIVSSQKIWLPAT
Kind of assay: Inhibition of human CHK1.

For assay [3], the system named is HCT-116. Kind of assay: Induction of apoptosis in human HCT116 cells assessed as early apoptotic cells at 20 uM after 24 hrs by annexin V-FITC/propidium iodide staining-based flow cytometric analysis (reference value: 22%). The format is functional.
The target in assay [4] is Aurora kinase B (Homo sapiens) (UniProt Q96GD4). Kind of assay: Inhibition of human aurora-B. Conditions: concentration not given here.
The test system of assay [5] is HCT-116. Kind of assay: Cell cycle arrest in human HCT116 cells assessed as accumulation at sub-G1 phase at 20 uM after 12 hrs by propidium iodide staining-based flow cytometric analysis (reference value: 2.9%). The format is functional.
Assay [6] relates to HCT-116. Kind of assay: Induction of apoptosis in human HCT116 cells assessed as late apoptotic cells at 20 uM after 24 hrs by annexin V-FITC/propidium iodide staining-based flow cytometric analysis (reference value: 5%). It is filed as functional.
Assay [7] relates to HCT-116. Kind of assay: Cell cycle arrest in human HCT116 cells assessed as accumulation at G1 phase at 20 uM after 24 hrs by propidium iodide staining-based flow cytometric analysis (reference value: 2.9%). It is filed as functional.
The target of assay [8] is RAF proto-oncogene serine/threonine-protein kinase (Homo sapiens) (UniProt P04049). Kind of assay: Inhibition of human c-RAF.
Assay [9] has as its system HCT-116. Kind of assay: Cell cycle arrest in human HCT116 cells assessed as accumulation at sub-G1 phase at 20 uM after 48 hrs by propidium iodide staining-based flow cytometric analysis (reference value: 2.9%). The format is functional.
A further assay is filed under the species Homo sapiens. Kind of assay: Inhibition of human Rsk.
Assay [10] deals with HCT-116. Kind of assay: Cell cycle arrest in human HCT116 cells assessed as accumulation at S phase at 20 uM after 12 hrs by propidium iodide staining-based flow cytometric analysis (reference value: 26.9%). It is filed as functional.
The subject of assay [11] is HCT-116. Kind of assay: Cytotoxicity against human HCT116 cells assessed as decrease in cell viability at > 20 uM after 24 hrs by CCK8 assay. The format is functional, cell-based.
For assay [12], the target named is T2, Aurora kinase A (Homo sapiens) (UniProt O14965).
T2 sequence (whole entry): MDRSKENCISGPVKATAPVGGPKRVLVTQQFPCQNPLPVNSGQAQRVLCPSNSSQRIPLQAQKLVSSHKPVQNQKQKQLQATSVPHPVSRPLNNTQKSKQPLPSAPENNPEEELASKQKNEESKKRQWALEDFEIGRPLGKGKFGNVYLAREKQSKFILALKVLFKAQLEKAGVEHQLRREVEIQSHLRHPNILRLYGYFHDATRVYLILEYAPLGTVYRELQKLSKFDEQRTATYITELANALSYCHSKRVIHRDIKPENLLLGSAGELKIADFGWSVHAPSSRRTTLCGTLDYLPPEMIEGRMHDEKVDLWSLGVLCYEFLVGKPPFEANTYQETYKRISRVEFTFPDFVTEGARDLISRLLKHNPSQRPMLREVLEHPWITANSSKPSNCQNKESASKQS
Kind of assay: Inhibition of human aurora-A. Conditions: concentration not given here.

The target of assay [13] is Vascular endothelial growth factor receptor 2 (Homo sapiens) (UniProt P35968). Kind of assay: Inhibition of human KDR.
For assay [14], the system named is HCT-116. Kind of assay: Cell cycle arrest in human HCT116 cells assessed as accumulation at G2/M phase at 20 uM after 24 hrs by propidium iodide staining-based flow cytometric analysis (reference value: 2.9%). The format is functional.
Assay [15] deals with HCT-116. Kind of assay: Cell cycle arrest in human HCT116 cells assessed as accumulation at G1 phase at 20 uM after 12 hrs by propidium iodide staining-based flow cytometric analysis (reference value: 48.2%). The format is functional.
The subject of assay [16] is HCT-116. Kind of assay: Cytotoxicity against human HCT116 cells assessed as cell survival at 5 to 40 uM after 7 days by crystal violet staining assay. Conditions: HCT-116, 168 h. It is filed as functional, cell-based.
Assay [17] has as its system HCT-116. Kind of assay: Induction of apoptosis in human HCT116 cells assessed as DNA content at sub-G1 phase at 20 uM after 24 hrs by annexin V-FITC/propidium iodide staining-based flow cytometric analysis (reference value: 92%). The format is functional.
The subject of assay [18] is HCT-116. Kind of assay: Cell cycle arrest in human HCT116 cells assessed as accumulation at S phase at 20 uM after 24 hrs by propidium iodide staining-based flow cytometric analysis (reference value: 2.9%). The format is functional.
Assay [19] deals with HCT-116. Kind of assay: Cell cycle arrest in human HCT116 cells assessed as accumulation at G2/M phase at 20 uM after 12 hrs by propidium iodide staining-based flow cytometric analysis (reference value: 20.8%). It is filed as functional.
Assay [20] has as its system HCT-116. Kind of assay: Induction of apoptosis in human HCT116 cells assessed as caspase-7 cleavage at 20 uM by Western blot analysis. The format is functional, cell-based. Particulars: TDE = time-dependent effect.
The test system of assay [21] is HCT-116. Kind of assay: Cell cycle arrest in human HCT116 cells assessed as accumulation at G2/M phase at 20 uM after 48 hrs by propidium iodide staining-based flow cytometric analysis (reference value: 2.9%). The format is functional.
Assay [22] concerns HCT-116. Kind of assay: Cytotoxicity against human HCT116 cells assessed as cell survival at 0.5 to 5 uM after 7 days by crystal violet staining assay. The format is functional, cell-based. Particulars: HCT-116, 168 h.
For assay [23], the target named is T3, Interleukin-1 receptor-associated kinase 4 (Homo sapiens) (UniProt Q9NWZ3).
T3 sequence (whole entry): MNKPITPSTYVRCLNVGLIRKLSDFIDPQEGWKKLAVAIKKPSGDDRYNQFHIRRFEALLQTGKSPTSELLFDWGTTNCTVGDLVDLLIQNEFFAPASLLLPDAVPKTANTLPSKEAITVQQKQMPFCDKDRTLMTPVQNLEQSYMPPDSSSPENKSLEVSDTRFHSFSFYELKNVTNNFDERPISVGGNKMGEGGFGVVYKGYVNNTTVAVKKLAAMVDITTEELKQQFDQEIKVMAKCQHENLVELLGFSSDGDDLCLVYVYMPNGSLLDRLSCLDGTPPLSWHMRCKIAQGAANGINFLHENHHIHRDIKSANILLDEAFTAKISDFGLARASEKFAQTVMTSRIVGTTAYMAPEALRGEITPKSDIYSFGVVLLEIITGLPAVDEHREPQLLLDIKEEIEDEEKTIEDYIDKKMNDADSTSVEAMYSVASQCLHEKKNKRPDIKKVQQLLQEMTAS
Kind of assay: Inhibition of human IRAK4.

Vascular endothelial growth factor receptor 2 (Homo sapiens), sequence (P35968 whole entry): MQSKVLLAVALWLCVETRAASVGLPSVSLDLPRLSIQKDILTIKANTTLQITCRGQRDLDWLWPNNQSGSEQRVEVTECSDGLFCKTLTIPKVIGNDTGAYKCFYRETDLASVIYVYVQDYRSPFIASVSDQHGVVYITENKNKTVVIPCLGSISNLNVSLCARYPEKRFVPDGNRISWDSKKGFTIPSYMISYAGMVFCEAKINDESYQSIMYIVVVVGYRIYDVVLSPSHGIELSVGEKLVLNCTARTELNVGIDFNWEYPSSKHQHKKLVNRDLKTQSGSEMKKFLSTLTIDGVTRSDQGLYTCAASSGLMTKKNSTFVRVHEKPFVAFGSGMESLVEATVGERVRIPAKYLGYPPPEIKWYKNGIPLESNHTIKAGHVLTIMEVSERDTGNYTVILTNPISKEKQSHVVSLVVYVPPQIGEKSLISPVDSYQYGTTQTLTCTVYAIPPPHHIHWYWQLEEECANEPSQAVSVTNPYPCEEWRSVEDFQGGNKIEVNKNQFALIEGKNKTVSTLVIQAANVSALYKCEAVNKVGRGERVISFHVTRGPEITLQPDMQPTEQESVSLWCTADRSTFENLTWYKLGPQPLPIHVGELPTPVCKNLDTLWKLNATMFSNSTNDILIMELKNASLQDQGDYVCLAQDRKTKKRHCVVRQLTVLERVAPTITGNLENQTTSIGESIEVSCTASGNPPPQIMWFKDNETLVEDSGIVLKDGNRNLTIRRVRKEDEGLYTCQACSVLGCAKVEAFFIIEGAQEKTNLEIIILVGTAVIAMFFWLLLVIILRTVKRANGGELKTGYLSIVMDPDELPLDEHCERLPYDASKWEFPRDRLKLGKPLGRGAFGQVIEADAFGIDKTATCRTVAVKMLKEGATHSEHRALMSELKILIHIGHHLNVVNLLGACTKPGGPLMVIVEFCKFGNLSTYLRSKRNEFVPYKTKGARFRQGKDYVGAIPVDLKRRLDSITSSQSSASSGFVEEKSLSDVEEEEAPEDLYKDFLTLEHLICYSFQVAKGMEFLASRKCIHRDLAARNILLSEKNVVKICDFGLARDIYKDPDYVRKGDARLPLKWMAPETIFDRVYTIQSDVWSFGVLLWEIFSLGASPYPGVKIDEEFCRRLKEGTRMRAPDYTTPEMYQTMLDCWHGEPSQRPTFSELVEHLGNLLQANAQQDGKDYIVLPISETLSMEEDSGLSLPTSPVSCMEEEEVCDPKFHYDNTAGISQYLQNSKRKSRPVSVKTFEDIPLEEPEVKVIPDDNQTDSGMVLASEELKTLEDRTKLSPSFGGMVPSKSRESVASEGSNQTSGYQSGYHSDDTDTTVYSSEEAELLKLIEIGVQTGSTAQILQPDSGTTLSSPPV
RAF proto-oncogene serine/threonine-protein kinase (Homo sapiens), sequence (P04049 whole entry): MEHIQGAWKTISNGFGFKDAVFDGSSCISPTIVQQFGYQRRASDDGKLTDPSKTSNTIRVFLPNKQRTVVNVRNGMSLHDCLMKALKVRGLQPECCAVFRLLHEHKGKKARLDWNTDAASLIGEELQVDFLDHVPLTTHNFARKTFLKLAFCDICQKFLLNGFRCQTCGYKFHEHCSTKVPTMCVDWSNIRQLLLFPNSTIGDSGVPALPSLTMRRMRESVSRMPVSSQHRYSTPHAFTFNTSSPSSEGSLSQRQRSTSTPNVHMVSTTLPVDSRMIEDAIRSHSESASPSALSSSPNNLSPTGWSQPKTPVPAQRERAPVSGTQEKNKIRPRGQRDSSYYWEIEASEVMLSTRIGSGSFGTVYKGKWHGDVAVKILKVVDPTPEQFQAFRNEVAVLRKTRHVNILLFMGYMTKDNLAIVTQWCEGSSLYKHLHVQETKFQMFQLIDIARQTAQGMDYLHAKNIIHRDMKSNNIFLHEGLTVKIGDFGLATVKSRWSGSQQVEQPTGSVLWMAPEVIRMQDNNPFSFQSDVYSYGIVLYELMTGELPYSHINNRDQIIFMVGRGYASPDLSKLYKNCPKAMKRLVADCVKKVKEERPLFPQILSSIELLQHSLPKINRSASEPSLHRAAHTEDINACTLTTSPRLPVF
Aurora kinase B (Homo sapiens), sequence (Q96GD4 whole entry): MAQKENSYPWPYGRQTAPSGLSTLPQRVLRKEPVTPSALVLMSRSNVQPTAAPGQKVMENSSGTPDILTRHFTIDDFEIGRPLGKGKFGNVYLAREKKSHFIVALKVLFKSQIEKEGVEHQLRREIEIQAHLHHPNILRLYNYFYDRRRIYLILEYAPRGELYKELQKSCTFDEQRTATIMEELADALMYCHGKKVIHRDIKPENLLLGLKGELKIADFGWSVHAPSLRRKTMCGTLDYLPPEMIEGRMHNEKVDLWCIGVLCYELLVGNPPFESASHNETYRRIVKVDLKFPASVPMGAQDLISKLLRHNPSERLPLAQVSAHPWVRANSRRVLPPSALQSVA

Turning to `COc1ccc2c(c1)C=C(C(=O)/C=C/c1c(OC)cc(OC)cc1OC)CO2`, the viability at 20 µM with HCT-116 [1] is 0%. The inhibition result (in assay [2]; in [8]; in the assay filed under Homo sapiens; in assay [13]; in assay [23]) was “inactive” in each case. For the same molecule, the Activity in the assay on HCT-116 [3] is 86%; with HCT-116 [5] it was 15.1%; in the assay with HCT-116 [6], 14%; with HCT-116 [7], 23.1%; in the assay on HCT-116 [9], 45.3%; with HCT-116 [10] it was 19.6%. Also, the Activity in the assay on HCT-116 [14] is 21.5%; with HCT-116 [15], 18.9%; in the assay with HCT-116 [17] it was 1%; in the assay on HCT-116 [18] it was 13.6%; in the assay with HCT-116 [19] it was 44.2%; in the assay on HCT-116 [20], “tde”. Besides, in the assay with HCT-116 [21], the Activity is 8.4%. In addition, the inhibition in assay [4] is 65%; in assay [12] it was 69%. Moreover, in the assay on HCT-116 [11], the result was Active. In addition, the figures for the pIC50 with HCT-116 [16] and in the assay with HCT-116 [22] were 7.03 and 7.01, respectively.
